This passage reports IC50 results from patent US7429605B2, “Phenylpyridine derivatives” (Hoffmann-La Roche Inc., priority 2005, dated 2008).

The term IC50 denotes the concentration needed to halve the response being measured. Read a low IC50 as higher potency.

This assay deals with HEK293 cells. Nature of the assay: Viability assay in HEK293 cells (CellTiter-Glo Luminescent Cell Viability Assay). In kind it is cell-based. Particulars: Homo sapiens, 7 days (168 h) incubation, compound 3 μM to 0.00015 μM, ATP luminescence. The method, then:
Viability Assay in HEK293 Cells
A viability assay was performed using the CellTiter-Glo® Luminescent Cell Viability Assay (see Promega Corporation's Technical Bulletin No. 288, pp. 1-11 [revised 2/04] which is hereby incorporated by reference in its entirety). This assay is a homogeneous method of determining the number of viable cells in culture based on quantitation of the ATP present, an indicator of metabolically active cells. The assay is designed for use with multiwell formats, making it ideal for automated high-throughput screening (HTS), cell proliferation and cytotoxicity assays. The homogeneous assay procedure involves adding a single reagent (containing luciferase, luciferan substrate, and buffer) directly to cells cultured in serum-supplemented medium. Cell washing, removal of medium and multiple pipetting steps are not required. The system detects as few as 15 cells/well in a 384-well format in 10 minutes after adding reagent and mixing.
The homogeneous “add-mix-measure” format results in cell lysis and generation of a luminescent signal proportional to the amount of ATP present. The amount of ATP is directly proportional to the number of cells present in culture. The above-referenced assay generates a “glow-type” luminescent signal, produced by the luciferase reaction, which has a half-life generally greater than five hours, depending on cell type and medium used. The extended half-life eliminates the need to use reagent injectors and provides flexibility for continuous or batch mode processing of multiple plates. The unique homogeneous format avoids errors that may be introduced by other ATP measurement methods that require multiple steps.
HEK293 cells (human embryonic kidney cell line transformed by Adenovirus 5 fragments, ATCC-No. CRL 1573) were cultivated in Dulbecco's Modified Eagle Medium (DMEM) with Glutamax™ (cell culture media that contains L-Alanyl-L-Glutamine [a stabilized form/source of L-Glutamine] from Invitrogen, Cat-No. 31966-021), 5% Fetal Calf Serum (FCS, Sigma Cat-No. F4135 (FBS)), 100 Units/ml penicillin/100 μg/ml streptomycin (=Pen/Strep from Invitrogen Cat. No. 15140). For the assay the cells were seeded in 384 well plates, 5000 cells per well, in the same medium. The next day the test compounds were added in various concentrations ranging from 3 μM to 0.00015 μM (10 concentrations, 1:3 diluted). After 7 days the viability assay was done according to the instructions of the manufacturer. In brief: the cell-plate was equilibrated to room temperature for approximately 30 minutes and than the reagent (containing luciferase, luciferan substrate, and buffer) was added. The contents were carefully mixed for 15 minutes to induce cell lysis. After 45 minutes the luminescent signal was measured in Victor 2, (scanning multiwell spectrophotometer, Wallac).
Medium: Dulbecco's Modified Eagle Medium (DMEM) with Glutamax™ (Invitrogen, 31966-021), 5% Fetal Calf Serum (FCS, Sigma Cat-No. F4135 (FBS)), Pen/Strep (Invitrogen Cat. No. 15140).
Incubate 24 h at 37° C., 5% CO2
2. day Induction (Substance testing):
In general the dilution steeps are 1:3 a) Add 8 μl of 10 mM stock solution of compound to 72 μl DMSO b) dilute 9×1:3 (always 30 μl to 60 μl DMSO) in this DMSO dilution row (results in 10 wells with concentrations from 1000 μM to 0.06 μM) c) dilute each concentration 1:4.8 (10 μl compound dilution to 38 μd medium) d) dilute each concentration 1:10 (10 μl compound dilution to 90 μl medium) e) add 10 μl of every concentration to 60 μl medium in the cell plate resulting in final concentration of DMSO: 0.3% in every well and resulting in final concentration of compounds from 3 μM to 0.00015 μM Incubate 168 h (7 days) at 37° C., 5% CO2
Add 30 μl CellTiter-Glo™ Reagent (containing luciferase, luciferan substrate, and buffer)/well, shake 15 minutes at room temperature incubate further 45 minutes at room temperature without shaking.
Victor 2 scanning multiwell spectrophotometer (Wallac), Luminescence mode […]
For orientation: Cellular ATP, detected with luciferase, serves as a proxy for viable cell number.
The molecule `Cc1nc(-c2ccc(C(F)(F)F)cc2F)ccc1COc1ccc(CCCCn2ccnn2)cc1` [Example 43, 6-(2-Fluoro-4-trifluoromethyl-phenyl)-2-methyl-3-[4-(4-[1,2,3]triazol-1-yl-butyl)-phenoxymethyl]-pyridine] yielded an IC50 of 1 to 5 µM.
`Cc1cc(OCc2ccc(-c3ccc(C(F)(F)F)cc3F)nc2C)ccc1CCCCn1ccnn1` [Example 42, 6-(2-Fluoro-4-trifluoromethyl-phenyl)-2-methyl-3-[3-methyl-4-(4-[1,2,3]triazol-1-yl-butyl)-phenoxymethyl]-pyridine] yielded an IC50 of 0.005 to 1 µM.
In the case of `Cc1nc(-c2ccc(C(F)(F)F)cc2)ccc1COc1ccc(CCCCn2ccnn2)cc1` [Example 7, 2-Methyl-3-[4-(4-[1,2,3]triazol-1-yl-butyl)-phenoxymethyl]-6-(4-trifluoromethyl-phenyl)-pyridine], the IC50 lay within 0.005 to 1 µM.
With `Cc1cc(OCc2ccc(-c3cccc(C(F)(F)F)c3)nc2)ccc1CCCCn1ccnn1` [Example 26, 5-[3-Methyl-4-(4-[1,2,3]triazol-1-yl-butyl)-phenoxymethyl]-2-(3-trifluoromethyl-phenyl)-pyridine], the IC50 lay within 1 to 5 µM.
Take `Cc1nc(-c2ccc(C(F)(F)F)cc2)ccc1COc1ccc(CSCCn2ccnn2)cc1` [Example 22, 2-Methyl-3-[4-(2-[1,2,3]triazol-1-yl-ethylsulfanylmethyl)-phenoxymethyl]-6-(4-trifluoromethyl-phenyl)-pyridine]: the 50% inhibitory concentration (IC50) lay in the range of 0.005 to 1 µM.
For the molecule `FC(F)(F)c1ccc(-c2ccc(COc3ccc(CCCCn4ccnn4)cc3)cn2)cc1` [Example 3, 5-[4-(4-[1,2,3]triazol-1-yl-butyl)-phenoxymethyl]-[2-(4-trifluoromethyl-phenyl)]-pyridine], the IC50 fell in the range of 0.005 to 1 µM.
For `Cc1cc(OCc2ccc(-c3ccc(Cl)cc3)nc2)ccc1CCCCn1ccnn1` [Example 28, 2-(4-Chloro-phenyl)-5-[3-methyl-4-(4-[1,2,3]triazol-1-yl-butyl)-phenoxymethyl]-pyridine], the IC50 fell in the range of 1 to 5 µM.
`Cc1cc(OCc2ccc(-c3cccc(OC(F)(F)F)c3)nc2C)ccc1CCCCn1ccnn1` [Example 15, 2-Methyl-3-[3-Methyl-4-(4-[1,2,3]triazol-1-yl-butyl)-phenoxymethyl]-6-(3-trifluoromethoxy-phenyl)-pyridine] returned an IC50 of 1 to 5 µM.
The molecule `Cc1nc(-c2ccc(F)cc2)ccc1COc1ccc(CSCCn2ccnn2)cc1` [Example 23, 6-(4-Fluoro-phenyl)-2-methyl-3-[4-(2-[1,2,3]triazol-1-yl-ethylsulfanylmethyl)-phenoxymethyl]-pyridine] gave a concentration for half-maximal inhibition (IC50) of 1 to 5 µM.
`Clc1ccc(-c2cccc(COc3ccc(CCCCn4ccnn4)cc3)n2)cc1` [Example 35, 2-(4-Chloro-phenyl)-6-[4-(4-[1,2,3]triazol-1-yl-butyl)-phenoxymethyl]-pyridine]: the 50% inhibitory concentration (IC50) was in the range of 1 to 5 µM.
Consider `Cc1cc(OCc2ccc(-c3ccc(C(F)(F)F)cc3)nc2C)ccc1CCCCn1ccnn1` [Example 6, 2-Methyl-3-[3-Methyl-4-(4-[1,2,3]triazol-1-yl-butyl)-phenoxymethyl]-6-(4-trifluoromethyl-phenyl)-pyridine], for which the IC50 was 0.005 to 1 µM.
The molecule `Cc1nc(-c2ccc(C(F)(F)F)cc2)ccc1COc1ccc(COCCn2ccnn2)cc1` [Example 8, 2-Methyl-3-[4-(2-[1,2,3]triazol-1-yl-ethoxymethyl)-phenoxymethyl]-6-(4-trifluoromethyl-phenyl)-pyridine] returned an IC50 of 0.005 to 1 µM.
Regarding `Cc1cc(OCc2ccc(-c3ccc(C(F)(F)F)cc3)nc2)ccc1CCCCn1ccnn1` [Example 5, 5-[3-Methyl-4-(4-[1,2,3]triazol-1-yl-butyl)-phenoxymethyl]-2-(4-trifluoromethyl-phenyl)-pyridine], 0.089 µM corresponded to half-maximal inhibition (IC50).
As for `Cc1nc(-c2ccc(Cl)cc2)ccc1COc1ccc(CCCCn2ccnn2)cc1` [Example 20, 6-(4-Chloro-phenyl)-2-methyl-3-[4-(4-[1,2,3]triazol-1-yl-butyl)-phenoxymethyl]-pyridine], the IC50 lay in the range of 0.005 to 1 µM.
`Clc1ccc(-c2ccc(COc3ccc(CCCCn4ccnn4)cc3)cn2)cc1` [Example 27, 2-(4-Chloro-phenyl)-5-[4-(4-[1,2,3]triazol-1-yl-butyl)-phenoxymethyl]-pyridine]: the IC50 was 0.005 to 1 µM.
`FC(F)(F)c1ccc(-c2cncc(COc3ccc(CCCCn4ccnn4)cc3)c2)cc1` [Example 33, 3-[4-(4-[1,2,3]Triazol-1-yl-butyl)-phenoxymethyl]-5-(4-trifluoromethyl-phenyl)-pyridine] came in with a half-maximal inhibitory concentration (IC50) of 1 to 5 µM.
`FC(F)(F)c1ccc(-c2cccc(COc3ccc(CCCCn4ccnn4)cc3)n2)cc1` [Example 18, 2-[4-(4-[1,2,3]triazol-1-yl-butyl)-phenoxymethyl]-6-(4-trifluoromethyl-phenyl)-pyridine] registered an IC50 of 1 to 5 µM.
`Cc1cc(OCc2cncc(-c3ccc(Cl)cc3)c2)ccc1CCCCn1ccnn1` [Example 38, 3-(4-Chloro-phenyl)-5-[3-methyl-4-(4-[1,2,3]triazol-1-yl-butyl)-phenoxymethyl]-pyridine] showed an IC50 of 1 to 5 µM.
For `Cc1cc(OCc2ccc(-c3ccc(OC(F)(F)F)cc3)nc2)ccc1CCCCn1ccnn1` [Example 4, 5-[3-Methyl-4-(4-[1,2,3]triazol-1-yl-butyl)-phenoxymethyl]-[2-(4-trifluoromethoxy-phenyl)]-pyridine] the value was 0.365 µM.
Molecule `Cc1cc(OCc2ccc(-c3ccc(OC(F)(F)F)cc3)nc2C)ccc1CCCCn1ccnn1` [Example 11, 2-Methyl-3-[3-Methyl-4-(4-[1,2,3]triazol-1-yl-butyl)-phenoxymethyl]-6-(4-trifluoromethoxy-phenyl)-pyridine] displayed an IC50 of 0.005 to 1 µM.
`Cc1cc(OCc2ccc(-c3cccc(C(F)(F)F)c3)nc2C)ccc1CCCCn1ccnn1` [Example 13, 2-Methyl-3-[3-Methyl-4-(4-[1,2,3]triazol-1-yl-butyl)-phenoxymethyl]-6-(3-trifluoromethyl-phenyl)-pyridine] gave an IC50 of 1 to 5 µM.
For `Cc1nc(-c2ccc(C(F)(F)F)cc2)ccc1COc1ccc(C[S+]([O-])CCn2ccnn2)cc1` (stereo not drawn) [Example 9, 2-Methyl-3-[4-(2-[1,2,3]triazol-1-yl-ethanesulfinylmethyl)-phenoxymethyl]-6-(4-trifluoromethyl-phenyl)-pyridine] the value was 1 to 5 µM; for `Cc1cc(OCc2ccc(-c3ccc(Cl)cc3)nc2C)ccc1CCCCn1ccnn1` [Example 21, 6-(4-Chloro-phenyl)-2-methyl-3-[3-Methyl-4-(4-[1,2,3]triazol-1-yl-butyl)-phenoxymethyl]-pyridine], 0.005 to 1 µM.
For `Cc1nc(-c2ccc(F)cc2)ccc1COc1ccc(CCCCn2ccnn2)cc1` [Example 16, 6-(4-Fluoro-phenyl)-2-methyl-3-[4-(4-[1,2,3]triazol-1-yl-butyl)-phenoxymethyl]-pyridine] the value was 0.005 to 1 µM; for `Cc1cc(OCc2cccc(-c3ccc(C(F)(F)F)cc3)n2)ccc1CCCCn1ccnn1` [Example 19, 2-[3-Methyl-4-(4-[1,2,3]triazol-1-yl-butyl)-phenoxymethyl]-6-(4-trifluoromethyl-phenyl)-pyridine], 0.005 to 1 µM; for `Cc1cc(OCc2cccc(-c3ccc(OC(F)(F)F)cc3)n2)ccc1CCCCn1ccnn1` [Example 30, 2-[3-Methyl-4-(4-[1,2,3]triazol-1-yl-butyl)-phenoxymethyl]-6-(4-trifluoromethoxy-phenyl)-pyridine], 1 to 5 µM.
In the case of `Cc1cc(OCc2ccc(-c3ccc(F)cc3)nc2C)ccc1CCCCn1ccnn1` [Example 17, 6-(4-Fluoro-phenyl)-2-methyl-3-[3-Methyl-4-(4-[1,2,3]triazol-1-yl-butyl)-phenoxymethyl]-pyridine], the IC50 lay within 0.005 to 1 µM.
